Assay: not given

Row | SMILES | logP
1 | COc1ccc(-c2ncc(Cl)nc2-c2ccc(OC)cc2)cc1 | 4.3
2 | Cc1nc(C)c(-c2ccccc2)nc1-c1ccccc1 | 4.83
3 | Fc1ccc(-c2nccnc2-c2ccc(F)cc2)cc1 | 3.75
4 | COc1ccc(-c2nc(C)c(C)nc2-c2ccc(OC)cc2)cc1 | 4.1
5 | [O-][n+]1cc(Cl)nc(-c2ccc(Cl)cc2)c1-c1ccc(Cl)cc1 | 3.66
6 | Cc1ncc(C)[n+]([O-])c1Cl | 0.19
7 | c1ccc(-c2nccnc2-c2ccccc2)cc1 | 3.19
8 | CCOc1cnc(-c2ccccc2)c(-c2ccccc2)n1 | 4.73
9 | CC(C)c1cnc(-c2ccccc2)c(-c2ccccc2)n1 | 4.71
10 | COc1ccc(-c2nccnc2-c2ccc(OC)cc2)cc1 | 3.42
11 | Cc1cnc(-c2ccccc2)c(-c2ccccc2)n1 | 3.52
12 | Brc1ccc(-c2nccnc2-c2ccc(Br)cc2)cc1 | 3.41
13 | COc1ccccc1Cc1cnc(-c2ccccc2)c(-c2ccccc2)n1 | 5.2
14 | CCc1nc(-c2ccccc2)cnc1-c1ccccc1 | 4.94
15 | COc1ccc(-c2ncc(OC)nc2-c2ccc(OC)cc2)cc1 | 4.47

The remaining lines, values ahead:

Row | logP | SMILES
16 | 4.05 | Clc1cnc(-c2ccccc2)c(-c2ccccc2)n1
17 | 1.08 | Cc1nc(Cl)c(C)[n+]([O-])c1Cl
18 | 2.52 | N#Cc1ccc(-c2nccnc2-c2ccc(C#N)cc2)cc1
19 | 3.66 | COc1ccc(-c2ncc(C)nc2-c2ccc(OC)cc2)cc1
20 | 4.28 | Cc1nc(-c2ccccc2)cnc1-c1ccccc1
21 | 4.21 | COc1cnc(-c2ccccc2)c(-c2ccccc2)n1
22 | 3.7 | COc1ccc(-c2ncc(C#N)nc2-c2ccc(OC)cc2)cc1
23 | 2.4 | Cc1nc(Cl)c(C)nc1Cl
24 | 0.44 | Cc1c[n+]([O-])c(C)c(Cl)n1
25 | 3.41 | COC(=O)c1cnc(-c2ccc(OC)cc2)c(-c2ccc(OC)cc2)n1
26 | 4.22 | CCOc1cnc(-c2ccc(OC)cc2)c(-c2ccc(OC)cc2)n1
27 | 4.1 | Cc1ccc(-c2nccnc2-c2ccc(C)cc2)cc1

Assay: method code SF-HPLC, from DOI: 10.1021/js990112s, PMID: 10585226

Row | logP | SMILES
28 | 2.24 | COc1ccc(-c2cnccn2)cc1
29 | 2.07 | c1ccc(-c2cnccn2)cc1
